Experimental data: PubChem BioAssay (NCI)
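96-well plates; 48 h exposure; 5 concentrations. Endpoints by linear interpolation between flanking doses. Not reached: highest tested concentration assigned. GI50 = concentration required for 50% inhibition of growth. TGI is the concentration that stops growth completely.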

Experiments:
Experiment in all cases: inhibition of tumour cell growth, NCI panel, 48 h
[1] = tested on: OVCAR-3 ovarian
[2] = tested on: A549 NSCLC
[3] = tested on: PC-3 prostate
[4] = tested on: SK-MEL-2 melanoma
[5] = tested on: IGROV1 ovarian
[6] = tested on: HOP-92 NSCLC
[7] = tested on: SK-MEL-28 melanoma
[8] = tested on: EKVX NSCLC
[9] = tested on: CCRF-CEM leukemia
[10] = tested on: ACHN renal

SMILES | TGI [1] [µM] | TGI [2] [µM] | TGI [3] [µM] | TGI [4] [µM] | TGI [5] [µM] | TGI [6] [µM] | TGI [7] [µM] | TGI [8] [µM] | TGI [9] [µM] | TGI [10] [µM] | GI50 [2] [µM] | GI50 [3] [µM] | GI50 [6] [µM] | GI50 [7] [µM] | GI50 [8] [µM] | GI50 [1] [µM] | GI50 [10] [µM] | GI50 [4] [µM] | GI50 [9] [µM]
Cc1sc2nc3n(sc4nc5sc(C)c(C)c5c(=O)n43)c(=O)c2c1C | > 100 | > 100 | > 100 | > 100 | > 100 | > 100 | > 100 | 98.4 | 45.1 | – | – | – | – | – | – | – | – | – | –
O=C(c1ccccc1)c1ccc2nc(-c3c(Cl)c(Cl)c(Cl)c(Cl)c3C(=O)Nc3ccco3)[nH]c2c1 | > 100 | > 100 | > 100 | 80.4 | > 100 | > 100 | > 100 | > 100 | > 100 | > 100 | – | – | – | – | – | – | – | – | –
CCOC(=O)c1c(SCCN2CCCCC2)n(-c2ccccc2)c(=S)n(-c2ccccc2)c1=O | 24.7 | > 100 | 27.7 | > 100 | – | 30.8 | 24 | – | 11.8 | 34.7 | – | – | – | – | – | – | – | – | –
CCn1c(O)c(C(=O)NC(C)c2ccc([N+](=O)[O-])cc2)c(=O)n(CC)c1=S (stereo not drawn) | 10.5 | 11.5 | 10.2 | 2.72 | 11.4 | 8.48 | 17.6 | 12.7 | 11.9 | 11.2 | – | – | – | – | – | – | – | – | –
CCn1c(SCc2nnc(Nc3ccccc3)s2)nc2ccccc2c1=O | 41.2 | 19.3 | > 67.4 | 32 | 15.7 | 9.11 | 60.8 | 17.3 | > 85.7 | 9.16 | – | – | – | – | – | – | – | – | –
C=C1C(=O)O[C@H]2[C@H]1CC/C(COC(=O)/C=C/C(=O)OC/C1=C/CC[C@@]3(C)O[C@H]3[C@H]3OC(=O)C(=C)[C@@H]3CC1)=C\CC[C@@]1(C)O[C@@H]21 | – | > 100 | > 100 | – | – | 1.8 | 4.13 | > 100 | – | – | > 100 | 3.02 | 0.549 | 1.56 | 2.22 | – | – | – | –
O=[N+]([O-])c1cccc([N+](=O)[O-])c1Cl | 4.84 | 30 | 38.7 | 43.9 | 30.6 | 45.3 | 42 | 46.4 | – | 31.4 | – | – | – | – | – | – | – | – | –
CC(=O)NCC1OC2COC(c3ccccc3)OC2C2N=C(c3ccccc3)OC12 (stereo not drawn) | > 100 | > 100 | > 100 | > 100 | – | > 100 | > 100 | > 100 | > 100 | > 100 | – | – | – | – | – | – | – | – | –
Cn1c(O)c(/C=N/c2ncccn2)c(=O)[nH]c1=O | > 100 | > 100 | > 100 | > 100 | > 100 | > 100 | > 100 | > 100 | – | > 100 | – | – | – | – | – | – | – | – | –
C=C(C)[C@@H]1CC[C@]2(C(=O)OC3OC(COC4OC(CO)C(OC5OC(C)C(O)C(O)C5O)C(O)C4O)C(O)C(O)C3O)CC[C@]3(C)[C@H](CC[C@@H]4[C@@]5(C)CC[C@H](O)[C@@](C)(CO)[C@@H]5CC[C@]43C)[C@@H]12 (stereo partly drawn) | 5.16 | > 10 | > 8.45 | 6.22 | > 10 | > 6.7 | > 10 | > 10 | – | > 10 | – | – | – | – | – | – | – | – | –
Nc1cc2ncnc(Nc3cccc(Br)c3)c2cn1 | > 100 | > 100 | > 100 | 69.7 | – | > 100 | > 100 | – | > 100 | > 100 | – | – | – | – | – | – | – | – | –
Cc1cc(C)c(C#N)c(SC(=S)NC(=O)c2ccccc2)n1 | – | > 100 | > 100 | > 100 | > 100 | > 100 | > 100 | > 100 | > 100 | > 100 | – | – | – | – | – | – | – | – | –
O=C(O)c1cc(Nc2c(O)c3c(c(O)c2Cl)C(=O)C=CC3=O)ccc1O | > 10 | > 10 | > 10 | – | > 10 | > 10 | > 10 | > 10 | > 10 | > 10 | – | – | – | – | – | – | – | – | –
C/C=C\C(CC(=O)NCCc1c[nH]c2ccccc12)CC(=O)OC (stereo not drawn) | > 100 | > 100 | > 100 | > 100 | > 100 | > 100 | > 100 | > 100 | – | > 100 | – | – | – | – | – | – | – | – | –
CCOC(=O)COC1=Nc2cc(OC)c(OC)c3nc(Cl)cc(c23)C1=O | – | 18.3 | 3.45 | 4.09 | 5.97 | 3.22 | 4.01 | 1.83 | – | 3.02 | – | – | – | – | – | – | – | – | –
CCCOC1OC(CS(=O)(=O)O)C(OC(C)=O)C(OC(C)=O)C1OC(C)=O (stereo not drawn) | > 100 | – | > 100 | > 100 | > 100 | > 100 | > 100 | – | > 100 | – | – | – | – | – | – | – | – | – | –
CCCCN(CCCC)C1=Nc2ccccc2-n2c(nnc2C(=O)OCC)C1 | > 100 | > 100 | 51.6 | – | > 100 | 81.5 | > 100 | > 100 | > 100 | > 100 | – | – | – | – | – | – | – | – | –
COC(C[C@H]1CCCC[C@]1(O)/C(=C\CO[Si](C(C)C)(C(C)C)C(C)C)Sc1ccccc1)OC | – | > 100 | > 100 | 49.9 | > 100 | 68.8 | > 100 | > 100 | > 100 | > 100 | – | – | – | – | – | – | – | – | –
COc1ccc(-c2cc(-c3ccc(OC)c(OC)c3)nc(SCCCC(=O)NO)n2)cc1 | 5.46 | – | > 100 | 5.85 | – | 5.63 | – | > 100 | > 100 | 2.29 | – | 2.07 | 1.5 | – | 1.73 | 1.69 | 0.456 | 2.14 | 1.36
CC(=O)OCC1(CNc2nc(N)ncc2C#N)CC(CCc2ccccc2)C1 (stereo not drawn) | – | > 100 | > 100 | > 100 | > 100 | 49.9 | > 100 | > 100 | > 100 | > 100 | – | – | – | – | – | – | – | – | –
COc1ccc(OC)c(-c2cn3c(n2)sc2ccccc23)c1 | > 100 | > 100 | > 100 | > 100 | > 100 | > 100 | – | > 100 | > 100 | > 100 | – | – | – | – | – | – | – | – | –
